Test results published in patent publication US8771665B2 (Cocrystal Discovery, Inc., priority 2010, dated 2014).
Counter-ions that a name gives are not always drawn.

molecular target: T1, HCV1b NS5B polymerase delta 21 (Hepatitis C virus genotype 1b, UniProt P26663); test: RNA-Dependent RNA HCV NS5B (Polymerase) Assay and IC50 Determination; format: biochemical
T1 construct: purified HCV1b NS5B polymerase delta 21
Summary of the method: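 Purified NS5B Δ21 (0.6 μg) with polyA:U16 template, 10 μM UTP plus α-32P UTP in Tris-HCl pH 7.5, 5 mM MgCl2, 0.5% Triton X-100, 60 min at 23°C with varied compound concentrations. Radiolabelled RNA captured on filters, quantified by phosphorimaging; IC50 from triplicate assays.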

T1 sequence (P26663 2420-2989): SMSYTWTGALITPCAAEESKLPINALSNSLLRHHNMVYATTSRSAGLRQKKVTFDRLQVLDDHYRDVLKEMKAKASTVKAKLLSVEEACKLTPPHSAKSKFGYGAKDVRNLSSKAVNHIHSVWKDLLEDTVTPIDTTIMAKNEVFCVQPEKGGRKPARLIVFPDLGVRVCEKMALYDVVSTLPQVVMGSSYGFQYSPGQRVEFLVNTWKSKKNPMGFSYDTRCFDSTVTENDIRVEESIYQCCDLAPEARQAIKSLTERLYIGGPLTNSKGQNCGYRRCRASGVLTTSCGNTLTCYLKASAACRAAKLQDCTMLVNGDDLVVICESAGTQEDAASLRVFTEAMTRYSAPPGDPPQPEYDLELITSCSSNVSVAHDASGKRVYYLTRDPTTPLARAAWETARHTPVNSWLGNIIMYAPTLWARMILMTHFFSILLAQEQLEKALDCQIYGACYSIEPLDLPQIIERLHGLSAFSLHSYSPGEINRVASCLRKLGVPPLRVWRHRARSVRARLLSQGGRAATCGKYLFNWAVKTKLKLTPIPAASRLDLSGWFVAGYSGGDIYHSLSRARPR

| SMILES | IC50 |
| --- | --- |
| CC1CCC(C2=C(c3cc(-c4ccccc4)sc3C(=O)O)CCN(C(=O)Cc3ccncc3)C2)CC1 (stereo not drawn) [Example 093, 3-[5-(4-Methyl-cyclohexyl)-1-(2-pyridin-4-yl-acetyl)-1,2,3,6-tetrahydro-pyridin-4-yl]-5-phenyl-thiophene-2-carboxylic acid] | > 10 µM |
| CC1CCC(C2=C(c3cc(-c4ccccc4)sc3C(=O)O)CCN(C(=O)c3ccncc3)C2)CC1 (stereo not drawn) [Example 094, 3-[5-(4-Methyl-cyclohexyl)-1-(pyridine-4-carbonyl)-1,2,3,6-tetrahydro-pyridin-4-yl]-5-phenyl-thiophene-2-carboxylic acid] | 3 to 10 µM |
| CC1CCC(C2=C(c3cc(-c4ccccc4)sc3C(=O)O)CCN(Cc3cn(C)c4ccccc34)C2)CC1 (stereo not drawn) [Example 095, 3-[5-(4-Methyl-cyclohexyl)-1-(1-methyl-1H-indol-3-ylmethyl)-1,2,3,6-tetrahydro-pyridin-4-yl]-5-phenyl-thiophene-2-carboxylic acid] | 3 to 10 µM |
| CC1CCC(C2=C(c3cc(-c4ccccc4)sc3C(=O)O)CCN(C(=O)Cc3ccc4ccccc4c3)C2)CC1 (stereo not drawn) [Example 096, 3-[5-(4-Methyl-cyclohexyl)-1-(2-naphthalen-2-yl-acetyl)-1,2,3,6-tetrahydro-pyridin-4-yl]-5-phenyl-thiophene-2-carboxylic acid] | > 10 µM |
| CC1CCC(C2=C(c3cc(-c4ccccc4)sc3C(=O)O)CCN(C(=O)Cc3cccc4ccccc34)C2)CC1 (stereo not drawn) [Example 097, 3-[5-(4-Methyl-cyclohexyl)-1-(2-naphthalen-1-yl-acetyl)-1,2,3,6-tetrahydro-pyridin-4-yl]-5-phenyl-thiophene-2-carboxylic acid] | > 10 µM |
| CC1CCC(C2=C(c3cc(-c4ccccc4)sc3C(=O)O)CCN(C(=O)c3cn(C)c4ccccc34)C2)CC1 (stereo not drawn) [Example 098, 3-[5-(4-Methyl-cyclohexyl)-1-(1-methyl-1H-indole-3-carbonyl)-1,2,3,6-tetrahydro-pyridin-4-yl]-5-phenyl-thiophene-2-carboxylic acid] | > 10 µM |
| CC1CCC(C2=C(c3cc(-c4ccccc4)sc3C(=O)O)CCN(C(=O)c3nn(C)c4ccccc34)C2)CC1 (stereo not drawn) [Example 099, 3-[5-(4-Methyl-cyclohexyl)-1-(1-methyl-1H-indazole-3-carbonyl)-1,2,3,6-tetrahydro-pyridin-4-yl]-5-phenyl-thiophene-2-carboxylic acid] | 3 to 10 µM |
| CCOC(=O)c1sc(-c2ccc(NC(=O)c3cscn3)cc2)cc1C1=C(C2CCC(C)CC2)CN(C)CC1 (stereo not drawn) [Example 100, 3-[1-Methyl-5-(4-methyl-cyclohexyl)-1,2,3,6-tetrahydro-pyridin-4-yl]-5-{4-[(thiazole-4-carbonyl)-amino]-phenyl}-thiophene-2-carboxylic acid ethyl ester] | > 10 µM |
| CC1CCC(C2=C(c3cc(-c4ccc(NC(=O)c5cscn5)cc4)sc3C(=O)OCOC(=O)C(C)(C)C)CCN(C)C2)CC1 (stereo not drawn) [Example 101, 3-[1-Methyl-5-(4-methyl-cyclohexyl)-1,2,3,6-tetrahydro-pyridin-4-yl]-5-{4-[(thiazole-4-carbonyl)-amino]-phenyl}-thiophene-2-carboxylic acid 2,2-dimethyl-propionyloxymethyl ester] | > 10 µM |
| CC(=O)OCOC(=O)c1sc(-c2ccc(NC(=O)c3cscn3)cc2)cc1C1=C(C2CCC(C)CC2)CN(C)CC1 (stereo not drawn) [Example 102, 3-[1-Methyl-5-(4-methyl-cyclohexyl)-1,2,3,6-tetrahydro-pyridin-4-yl]-5-{4-[(thiazole-4-carbonyl)-amino]-phenyl}-thiophene-2-carboxylic acid acetoxymethyl ester] | > 10 µM |
| CC1CCC(C2=C(c3cc(-c4ccc(NC(=O)c5cscn5)cc4)sc3C(=O)OCCN(C)C)CCN(C)C2)CC1 (stereo not drawn) [Example 103, 3-[1-Methyl-5-(4-methyl-cyclohexyl)-1,2,3,6-tetrahydro-pyridin-4-yl]-5-{4-[(thiazole-4-carbonyl)-amino]-phenyl}-thiophene-2-carboxylic acid 2-dimethylamino-ethyl ester] | < 3 µM |
| CCOC(=O)OC(C)OC(=O)c1sc(-c2ccc(NC(=O)c3cscn3)cc2)cc1C1=C(C2CCC(C)CC2)CN(C)CC1 (stereo not drawn) [Example 104, 3-[1-Methyl-5-(4-methyl-cyclohexyl)-1,2,3,6-tetrahydro-pyridin-4-yl]-5-{4-[(thiazole-4-carbonyl)-amino]-phenyl}-thiophene-2-carboxylic acid 1-ethoxycarbonyloxy-ethyl ester] | > 10 µM |
| CCCC(=O)OCOC(=O)c1sc(-c2ccc(NC(=O)c3cscn3)cc2)cc1C1=C(C2CCC(C)CC2)CN(C)CC1 (stereo not drawn) [Example 105, 3-[1-Methyl-5-(4-methyl-cyclohexyl)-1,2,3,6-tetrahydro-pyridin-4-yl]-5-{4-[(thiazole-4-carbonyl)-amino]-phenyl}-thiophene-2-carboxylic acid butyryloxymethyl ester] | 3 to 10 µM |
| CC1CCC(C2=C(c3cc(-c4ccc(NC(=O)c5cscn5)cc4)sc3C(=O)OCOC(=O)OC(C)C)CCN(C)C2)CC1 (stereo not drawn) [Example 106, 3-[1-Methyl-5-(4-methyl-cyclohexyl)-1,2,3,6-tetrahydro-pyridin-4-yl]-5-{4-[(thiazole-4-carbonyl)-amino]-phenyl}-thiophene-2-carboxylic acid isopropoxycarbonyloxymethyl ester] | > 10 µM |
| CCOC(=O)OCOC(=O)c1sc(-c2ccc(NC(=O)c3cscn3)cc2)cc1C1=C(C2CCC(C)CC2)CN(C)CC1 (stereo not drawn) [Example 107, 3-[1-Methyl-5-(4-methyl-cyclohexyl)-1,2,3,6-tetrahydro-pyridin-4-yl]-5-{4-[(thiazole-4-carbonyl)-amino]-phenyl}-thiophene-2-carboxylic acid ethoxycarbonyloxymethyl ester] | < 3 µM |
| Cc1oc(=O)oc1COC(=O)c1sc(-c2ccc(NC(=O)c3cscn3)cc2)cc1C1=C(C2CCC(C)CC2)CN(C)CC1 (stereo not drawn) [Example 108, 3-[1-Methyl-5-(4-methyl-cyclohexyl)-1,2,3,6-tetrahydro-pyridin-4-yl]-5-{4-[(thiazole-4-carbonyl)-amino]-phenyl}-thiophene-2-carboxylic acid 5-methyl-2-oxo-[1,3]-dioxol-4-ylmethyl ester] | < 3 µM |
| CC1CCC(C2=C(c3cc(-c4ccccc4)sc3C(=O)O)CCN(CCCc3ccccc3)C2)CC1 (stereo not drawn) [Example 110, 3-[5-(4-Methyl-cyclohexyl)-1-(4-phenyl-propyl)-1,2,3,6-tetrahydro-pyridin-4-yl]-5-phenyl-thiophene-2-carboxylic acid] | > 10 µM |
| CC1CCC(C2=C(c3cc(C#CC(C)(C)C)sc3C(=O)O)CNCC2)CC1 (stereo not drawn) [Example 111, 5-(3,3-Dimethyl-but-1-ynyl)-3-[4-(4-methyl-cyclohexyl)-1,2,5,6-tetrahydro-pyridin-3-yl]-thiophene-2-carboxylic acid] | < 3 µM |
| CC1CCC(C2=C(c3cc(C#CC(C)(C)C)sc3C(=O)O)CN(C)CC2)CC1 (stereo not drawn) [Example 112, 5-(3,3-Dimethyl-but-1-ynyl)-3-[1-methyl-4-(4-methyl-cyclohexyl)-1,2,5,6-tetrahydro-pyridin-3-yl]-thiophene-2-carboxylic acid] | < 3 µM |
| CC1CCC(C2=C(c3cc(C#CC(C)(C)C)sc3C(=O)O)CN(CCO)CC2)CC1 (stereo not drawn) [Example 113, 5-(3,3-Dimethyl-but-1-ynyl)-3-[1-(2-hydroxy-ethyl)-4-(4-methyl-cyclohexyl)-1,2,5,6-tetrahydro-pyridin-3-yl]-thiophene-2-carboxylic acid] | < 3 µM |
| CC1CCC(C2=C(c3cc(C#CC(C)(C)C)sc3C(=O)O)CN(CCCO)CC2)CC1 (stereo not drawn) [Example 114, 5-(3,3-Dimethyl-but-1-ynyl)-3-[1-(3-hydroxy-propyl)-4-(4-methyl-cyclohexyl)-1,2,5,6-tetrahydro-pyridin-3-yl]-thiophene-2-carboxylic acid] | < 3 µM |
| CC1CCC(C2=C(c3cc(C#CC(C)(C)C)sc3C(=O)O)CN(CC3CCOC3)CC2)CC1 (stereo not drawn) [Example 117, 5-(3,3-Dimethyl-but-1-ynyl)-3-[4-(4-methyl-cyclohexyl)-1-(tetrahydro-furan-3-ylmethyl)-1,2,5,6-tetrahydro-pyridin-3-yl]-thiophene-2-carboxylic acid] | < 3 µM |
| CC1CCC(C2=C(c3cc(C#CC(C)(C)C)sc3C(=O)O)CN(CCF)CC2)CC1 (stereo not drawn) [Example 124, 5-(3,3-Dimethyl-but-1-ynyl)-3-[1-(2-fluoro-ethyl)-4-(4-methyl-cyclohexyl)-1,2,5,6-tetrahydro-pyridin-3-yl]-thiophene-2-carboxylic acid] | < 3 µM |
| CC1CCC(C2=C(c3cc(C#CC(C)(C)C)sc3C(=O)O)CCN(Cc3ccccn3)C2)CC1 (stereo not drawn) [Example 127, 5-(3,3-Dimethyl-but-1-ynyl)-3-[5-(4-methyl-cyclohexyl)-1-pyridin-2-ylmethyl-1,2,3,6-tetrahydro-pyridin-4-yl]-thiophene-2-carboxylic acid] | < 3 µM |
| Cc1cc(C)n2nc(CN3CCC(c4cc(C#CC(C)(C)C)sc4C(=O)O)=C(C4CCC(C)CC4)C3)nc2n1 (stereo not drawn) [Example 128, 5-(3,3-Dimethyl-but-1-ynyl)-3-[1-(5,7-dimethyl-[1,2,4]triazolo[1,5-a]pyrimidin-2-ylmethyl)-5-(4-methyl-cyclohexyl)-1,2,3,6-tetrahydro-pyridin-4-yl]-thiophene-2-carboxylic acid] | < 3 µM |
| CC1CCC(C2=C(c3cc(-c4ccc(C#Cc5cscn5)cc4)sc3C(=O)O)CCN(C)C2)CC1 (stereo not drawn) [Example 129, 3-[1-Methyl-5-(4-methyl-cyclohexyl)-1,2,3,6-tetrahydro-pyridin-4-yl]-5-(4-thiazol-4-ylethynyl-phenyl)-thiophene-2-carboxylic acid, hydrochloride salt] | < 3 µM |
| CC1CCC(C2=C(c3cc(-c4ccc(NC(=O)c5cscn5)cc4)sc3C(=O)O)CCN(Cc3ccccn3)C2)CC1 (stereo not drawn) [Example 131, 3-[5-(4-Methyl-cyclohexyl)-1-pyridin-2-ylmethyl-1,2,3,6-tetrahydro-pyridin-4-yl]-5-{4-[(thiazole-4-carbonyl)-amino]-phenyl}-thiophene-2-carboxylic acid] | < 3 µM |
